pEC50, pIC50: −log10 of the molar value.

The target in test [1] is T1, GLS1 (purified recombinant human GAC) (Homo sapiens, UniProt O94925).
T1 sequence (O94925 55-598 isoform O94925-3 limits assumed): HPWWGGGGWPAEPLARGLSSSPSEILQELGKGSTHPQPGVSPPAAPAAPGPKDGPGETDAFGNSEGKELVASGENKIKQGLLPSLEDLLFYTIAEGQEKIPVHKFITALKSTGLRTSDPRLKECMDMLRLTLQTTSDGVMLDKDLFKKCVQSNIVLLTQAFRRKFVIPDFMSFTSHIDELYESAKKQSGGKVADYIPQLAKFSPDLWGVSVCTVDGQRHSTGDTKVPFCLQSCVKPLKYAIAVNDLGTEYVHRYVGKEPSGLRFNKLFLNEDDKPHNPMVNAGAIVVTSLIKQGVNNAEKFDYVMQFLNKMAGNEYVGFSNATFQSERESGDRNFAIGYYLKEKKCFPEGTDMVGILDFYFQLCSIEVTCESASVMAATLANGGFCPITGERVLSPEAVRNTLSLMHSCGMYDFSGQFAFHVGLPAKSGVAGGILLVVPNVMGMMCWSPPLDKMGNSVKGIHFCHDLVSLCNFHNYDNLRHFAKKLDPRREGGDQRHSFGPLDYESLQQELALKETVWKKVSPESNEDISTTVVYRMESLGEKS
The test can be described thus: GLS1 enzymatic activity assay (dual-coupled, Amplex UltraRed/resorufin). The format is biochemical. The gist of the method: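 GAC activity measured by coupling glutamate to glutamate oxidase and HRP, generating resorufin from Amplex UltraRed. Enzyme (2 nM) preincubated with 50 mM potassium phosphate 10 min at room temperature, then inhibitor 10 min; 1 mM glutamine substrate, 1% DMSO. Fluorescence 530/590 nm, kinetic or 20-min endpoint; IC50 from four-parameter logistic fit.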

For test [2], the system named is A549 cells. The experiment in a line: A549 proliferation (viability) assay, Cell Titer Fluor, 72 hours. The format is cell-based. Conditions: Homo sapiens. In a few lines: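 A549 cells seeded at 1000 cells/well, left 24 h, then exposed to compound for 72 h at 37 °C, 5% CO2, final DMSO 0.5% (v/v). Viability read by Cell Titer Fluor fluorescence; EC50 from four-parameter logistic fit.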

Usually pIC50 stands for −log10 of the IC50, conventionally taken in molar units. A word on the pEC50: it is the negative decadic logarithm of the EC50, by convention in mol/L. Read a high pEC50 as a low EC50. For `O=C(Cc1ccccc1F)Nc1ccn(CCC(F)Cn2cc(C(=O)NCc3cccc(OC(F)(F)F)c3)nn2)c(=O)c1F` (stereo not drawn) [Example 328, 1-(2-fluoro-4-{3-fluoro-4-[2-(2-fluorophenyl)acetamido]-2-oxo-1,2-dihydropyridin-1-yl}butyl)-N-{[3-(trifluoromethoxy)phenyl]methyl}-1H-1,2,3-triazole-4-carboxamide], the pIC50 in test [1] is over 7.00. Besides, the pEC50 in test [2] is over 7.00.
Take `Cc1cccc(CNC(=O)c2cn(CCC(F)Cn3ccc(NC(=O)Cc4ccccc4)cc3=O)nn2)n1` (stereo not drawn) [Example 162, 1-{3-fluoro-4-[2-oxo-4-(2-phenylacetamido)-1,2-dihydropyridin-1-yl]butyl}-N-[(6-methylpyridin-2-yl)methyl]-1H-1,2,3-triazole-4-carboxamide]: the pIC50 in test [1] is over 7.00. The pEC50 in test [2] is 5.30 to 6.30.
`O=C(Cc1ccccc1)Nc1ccn(CCCCn2cc(C(=O)NCc3cccc(OC(F)(F)F)c3)nn2)c(=O)c1F` [Example 173, 1-{4-[3-fluoro-2-oxo-4-(2-phenylacetamido)-1,2-dihydropyridin-1-yl]butyl}-N-{[3-(trifluoromethoxy)phenyl]methyl}-1H-1,2,3-triazole-4-carboxamide]: the pIC50 in test [1] is over 7.00. In addition, in test [2], the pEC50 is over 7.00.
On to `CCOC(=O)C(=O)Nc1ccn(CCC(F)Cn2cc(C(=O)NCc3cccc(OC(F)(F)F)c3)nn2)c(=O)c1F` (stereo not drawn) [Example 347, ethyl [(3-fluoro-1-{3-fluoro-4-[4-({[3-(trifluoromethoxy)phenyl]methyl}carbamoyl)-1H-1,2,3-triazol-1-yl]butyl}-2-oxo-1,2-dihydropyridin-4-yl)carbamoyl]formate], for which the pIC50 in test [1] was 6.30 to 7.00. In test [2], this compound showed a pEC50 of under 5.30.
`O=C(Nc1ccn(CCC(F)Cn2cc(C(=O)NCc3cc(C(F)(F)F)ccn3)nn2)c(=O)c1F)C(=O)c1ccccc1` (stereo not drawn) [Example 333, 1-{2-fluoro-4-[3-fluoro-2-oxo-4-(2-oxo-2-phenylacetamido)-1,2-dihydropyridin-1-yl]butyl}-N-{[4-(trifluoromethyl)pyridin-2-yl]methyl}-1H-1,2,3-triazole-4-carboxamide]: in test [1], the negative logarithm of the IC50 (pIC50) is over 7.00. The pEC50 in test [2] was over 7.00.
As to `O=C(Nc1ccn(CCC(F)Cn2cc(C(=O)NCc3cccc(OC(F)(F)F)c3)nn2)c(=O)c1F)C(=O)N1CCCC(O)C1` (stereo not drawn) [Example 426, 1-(2-fluoro-4-{3-fluoro-4-[2-(3-hydroxypiperidin-1-yl)-2-oxoacetamido]-2-oxo-1,2-dihydropyridin-1-yl}butyl)-N-{[3-(trifluoromethoxy)phenyl]methyl}-1H-1,2,3-triazole-4-carboxamide], the pIC50 in test [1] was over 7.00. In test [2], this compound gave a pEC50 of 5.30 to 6.30.
The matching figures for `O=C(Cc1ccccc1)Nc1ccn(CCCCn2cc(C(=O)NCc3ncccc3F)nn2)c(=O)c1` [Example 147, N-[(3-fluoropyridin-2-yl)methyl]-1-{4-[2-oxo-4-(2-phenylacetamido)-1,2-dihydropyridin-1-yl]butyl}-1H-1,2,3-triazole-4-carboxamide]: 6.30 to 7.00 and under 5.30.
The matching figures for `CC(C)CC(=O)Nc1ccn(CCCCn2cc(C(=O)NCC3CCCCC3)nn2)c(=O)c1` [Example 39, N-(cyclohexylmethyl)-1-{4-[4-(3-methylbutanamido)-2-oxo-1,2-dihydropyridin-1-yl]butyl}-1H-1,2,3-triazole-4-carboxamide]: 6.30 to 7.00 and 5.30 to 6.30.
In the same order, the values of `O=C(Cc1ccccc1)Nc1ccn(CCCCn2cc(C(=O)NCc3ccccc3)nn2)c(=O)c1` [Example 2, N-benzyl-1-(4-(2-oxo-4-(2-phenylacetamido)pyridin-1(2H)-yl)butyl)-1H-1,2,3-triazole-4-carboxamide] are 6.30 to 7.00 and 5.30 to 6.30.
As to `O=C(CC1CCCCC1)Nc1ccn(CCC(F)Cn2cc(C(=O)NCc3ccccn3)nn2)c(=O)c1F` (stereo not drawn) [Example 267, 1-{4-[4-(2-cyclohexylacetamido)-3-fluoro-2-oxo-1,2-dihydropyridin-1-yl]-2-fluorobutyl}-N-(pyridin-2-ylmethyl)-1H-1,2,3-triazole-4-carboxamide], the pIC50 in test [1] was over 7.00. Moreover, the pEC50 in test [2] was over 7.00.
Regarding `O=C(CC1CCCC1)Nc1cnn(CCC(F)Cn2cc(C(=O)NCc3cccc(OC(F)(F)F)c3)nn2)c(=O)c1` (stereo not drawn) [Example 386, 1-(4-(4-(2-cyclopentylacetamido)-6-oxopyridazin-1(6H)-yl)-2-fluorobutyl)-N-(3-(trifluoromethoxy)benzyl)-1H-1,2,3-triazole-4-carboxamide], the pIC50 in test [1] is over 7.00. Besides, in test [2], the pEC50 was 6.30 to 7.00.
In the same order, the values of `O=C(CC1CC1)Nc1ccn(CCCCn2cc(C(=O)NCc3cccc(C(F)(F)F)c3)nn2)c(=O)c1` [Example 154, 1-{4-[4-(2-cyclopropylacetamido)-2-oxo-1,2-dihydropyridin-1-yl]butyl}-N-{[3-(trifluoromethyl)phenyl]methyl}-1H-1,2,3-triazole-4-carboxamide] are over 7.00 and 5.30 to 6.30.
Take `O=C(O)C(=O)Nc1ccn(CCC(F)Cn2cc(C(=O)NCc3cccc(OC(F)(F)F)c3)nn2)c(=O)c1F` (stereo not drawn) [Example 359, [(3-fluoro-1-{3-fluoro-4-[4-({[3-(trifluoromethoxy)phenyl]methyl}carbamoyl)-1H-1,2,3-triazol-1-yl]butyl}-2-oxo-1,2-dihydropyridin-4-yl)carbamoyl]formic acid]: the pIC50 in test [1] is 6.30 to 7.00. Moreover, in test [2], the pEC50 was 5.30 to 6.30.
For the compound `CC(C)(C)OC(=O)N1CCCC(CC(=O)Nc2ccn(CCC(F)Cn3cc(C(=O)NCc4cccc(OC(F)(F)F)c4)nn3)c(=O)c2)C1` (stereo not drawn) [Example 245, tert-butyl 3-{[(1-{3-fluoro-4-[4-({[3-(trifluoromethoxy)phenyl]methyl}carbamoyl)-1H-1,2,3-triazol-1-yl]butyl}-2-oxo-1,2-dihydropyridin-4-yl)carbamoyl]methyl}piperidine-1-carboxylate], in test [1], the pIC50 was over 7.00. In test [2], this compound had a pEC50 of over 7.00.
Regarding `Cc1ccc(CNC(=O)c2nnc(CCCCn3ccc(NC(=O)Cc4ccccc4)cc3=O)s2)cn1` [Example 441, N-[(6-methylpyridin-3-yl)methyl]-5-{4-[2-oxo-4-(2-phenylacetamido)-1,2-dihydropyridin-1-yl]butyl}-1,3,4-thiadiazole-2-carboxamide], the pIC50 in test [1] is over 7.00. The compound also showed a pEC50 in test [2] of 5.30 to 6.30.
As for `O=C(CC1CCC1)Nc1ccn(CCC(F)Cn2cc(C(=O)NCc3cccc(OC(F)(F)F)c3)nn2)c(=O)c1` (stereo not drawn) [Example 217, l-{4-[4-(2-cyclobutylacetamido)-2-oxo-1,2-dihydropyridin-1-yl]-2-fluorobutyl}-N-{[3-(trifluoromethoxy)phenyl]methyl}-1H-1,2,3-triazole-4-carboxamide], the pIC50 in test [1] is over 7.00. In addition, the negative logarithm of the EC50 (pEC50) in test [2] was over 7.00.
With `O=C(NCc1cccc(OC(F)(F)F)c1)c1cn(CC(F)CCn2ccc(NC(=O)C(F)c3ccccc3)c(F)c2=O)nn1` (stereo not drawn) [Example 327, 1-{2-fluoro-4-[3-fluoro-4-(2-fluoro-2-phenylacetamido)-2-oxo-1,2-dihydropyridin-1-yl]butyl}-N-{[3-(trifluoromethoxy)phenyl]methyl}-1H-1,2,3-triazole-4-carboxamide], the pIC50 in test [1] is over 7.00. In addition, the pEC50 in test [2] was over 7.00.
Turning to `O=C(Nc1ccn(CCC(F)Cn2cc(C(=O)NCc3cncc(C(F)(F)F)c3)nn2)c(=O)c1F)OC1CCC1` (stereo not drawn) [Example 398, cyclobutyl N-(3-fluoro-1-{3-fluoro-4-[4-({[5-(trifluoromethyl)pyridin-3-yl]methyl}carbamoyl)-1H-1,2,3-triazol-1-yl]butyl}-2-oxo-1,2-dihydropyridin-4-yl)carbamate], the negative-log IC50 (pIC50) in test [1] was over 7.00. This compound had a pEC50 in test [2] of over 7.00.
With `O=C(Cc1ccccc1)Nc1ccn(CCC(F)Cn2cc(C(=O)NCc3ccc(CF)nc3)nn2)c(=O)c1F` (stereo not drawn) [Example 375, 1-{2-fluoro-4-[3-fluoro-2-oxo-4-(2-phenylacetamido)-1,2-dihydropyridin-1-yl]butyl}-N-{[6-(fluoro-methyl)pyridin-3-yl]methyl}-1H-1,2,3-triazole-4-carboxamide], the pIC50 in test [1] was 6.30 to 7.00. The compound further showed a pEC50 in test [2] of 5.30 to 6.30.
In the same order, the values of `O=C(CN1CCCCC1)Nc1ccn(CCC(F)Cn2cc(C(=O)NCc3cc(C(F)(F)F)ccn3)nn2)c(=O)c1F` (stereo not drawn) [Example 344, 1-(2-fluoro-4-{3-fluoro-2-oxo-4-[2-(piperidin-1-yl)acetamido]-1,2-dihydropyridin-1-yl}butyl)-N-{[4-(trifluoromethyl)pyridin-2-yl]methyl}-1H-1,2,3-triazole-4-carboxamide] are 6.30 to 7.00 and over 7.00.
In the same order, the values of `O=C(CC1CCOC1)Nc1ccn(CCCCn2cc(C(=O)NCc3cccc(OC(F)(F)F)c3)nn2)c(=O)c1` (stereo not drawn) [Example 47, 1-(4-{2-oxo-4-[2-(oxolan-3-yl)acetamido]-1,2-dihydropyridin-1-yl}butyl)-N-{[3-(trifluoromethoxy)phenyl]methyl}-1H-1,2,3-triazole-4-carboxamide] are over 7.00 and 5.30 to 6.30.

The values are drawn from patent US20160002204A1 (Board of Regents, The University of Texas System, priority 2014, published 2016).
